Measured values as given in paper PMC12364708, “Structures and mechanism of the AUX/LAX transporters involved in auxin import” (Nature Plants, 2025).

Assays:
LAX3 = molecular target: T1, LAX3 (Arabidopsis thaliana, UniProt Q9CA25); assay: competition with 3H-IAA uptake into Xenopus oocytes; format: cell-based; details: 100 nM 3H-IAA; pH 6, room temperature, 8 min; competitive
T1 construct: full-length wild type, cRNA injected into Xenopus laevis oocytes
T1 sequence (Q9CA25 1-470): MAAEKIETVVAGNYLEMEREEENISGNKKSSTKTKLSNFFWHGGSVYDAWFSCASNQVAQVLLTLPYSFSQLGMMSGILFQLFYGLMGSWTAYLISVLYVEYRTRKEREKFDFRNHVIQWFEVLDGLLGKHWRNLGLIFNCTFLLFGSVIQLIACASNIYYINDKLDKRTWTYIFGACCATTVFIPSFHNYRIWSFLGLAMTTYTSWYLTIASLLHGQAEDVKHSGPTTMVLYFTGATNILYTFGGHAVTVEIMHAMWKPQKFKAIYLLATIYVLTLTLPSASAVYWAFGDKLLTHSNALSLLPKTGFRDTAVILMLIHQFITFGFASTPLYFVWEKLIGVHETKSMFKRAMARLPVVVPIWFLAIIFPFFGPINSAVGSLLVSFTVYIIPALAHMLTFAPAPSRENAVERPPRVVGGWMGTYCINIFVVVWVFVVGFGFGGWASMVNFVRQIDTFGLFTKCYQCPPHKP

LAX3 (residues 44–470) [1] = molecular target: T2, LAX3 (residues 44–470) (Arabidopsis thaliana, UniProt Q9CA25); assay: cryo-EM structure, […] Å; details: pH 7.5; 5 mM IAA; LMNG; central binding pocket, inward semi-occluded
T2 construct: N-terminally truncated, residues 44-470; C-terminal TEV site and His10 tag, cut with TEV; expressed in Saccharomyces cerevisiae DSY-5; LMNG/CHS; 47 kDa
T2 sequence (Q9CA25 44-470): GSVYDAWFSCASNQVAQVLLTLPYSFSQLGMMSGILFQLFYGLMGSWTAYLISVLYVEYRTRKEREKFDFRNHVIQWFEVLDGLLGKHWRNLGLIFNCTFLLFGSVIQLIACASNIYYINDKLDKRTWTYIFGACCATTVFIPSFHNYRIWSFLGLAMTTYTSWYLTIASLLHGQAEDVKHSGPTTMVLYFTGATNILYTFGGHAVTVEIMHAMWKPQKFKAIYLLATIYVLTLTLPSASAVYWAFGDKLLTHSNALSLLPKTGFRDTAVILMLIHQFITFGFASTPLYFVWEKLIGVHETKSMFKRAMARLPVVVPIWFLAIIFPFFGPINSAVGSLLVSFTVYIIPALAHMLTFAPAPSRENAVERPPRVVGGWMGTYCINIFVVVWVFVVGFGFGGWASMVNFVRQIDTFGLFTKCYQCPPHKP

LAX3 (residues 44–470) [2] = molecular target: T2, LAX3 (residues 44–470); assay: cryo-EM structure, […] Å; details: pH 7.5; 5 mM 2-NOA; LMNG; central binding pocket, fully occluded

SMILES	inhibition of IAA uptake at 10 μM (LAX3)	cryo-EM structure, 3.21 Å (LAX3 (residues 44–470) [1])	cryo-EM structure, 2.88 Å (LAX3 (residues 44–470) [2])
O=C(O)COc1ccc(Cl)cc1Cl [2,4-D]	these data demonstrate a competitive effect of all three compounds	–	–
O=C(O)Cc1c[nH]c2ccccc12 [IAA]	–	IAA-bound LAX3 inward semi-occluded: PDB 9H61 and EMD-51894	–
O=C(O)COc1cccc2ccccc12 [1-NOA]	these data demonstrate a competitive effect of all three compounds	–	–
O=C(O)COc1ccc2ccccc2c1 [2-NOA]	these data demonstrate a competitive effect of all three compounds	–	2-NOA bound LAX3 fully occluded: PDB 9H63 and EMD-51896
